Data as given in patent US20240199688A1, “METHODS FOR REDUCING LIPASE ACTIVITY” (Regeneron Pharmaceuticals, Inc., priority 2022, published 2024).

Test system: polysorbate degrading activity
Assay: Reduction of polysorbate degrading activity by lipase inhibitors
Format: biochemical, CHO
[1] = 0.001 mM lipase inhibitor, relative to control without inhibitor

| Molecule | Percent reduction in polysorbate 20 degradation [1] [%] | Percent reduction in polysorbate 20 degradation (0.01 mM lipase inhibitor) | Percent reduction in polysorbate 20 degradation (0.1 mM lipase inhibitor) [%] |
| --- | --- | --- | --- |
| CCCCCCCCCCC[C@@H](C[C@@H]1OC(=O)[C@H]1CCCCCC)OC(=O)[C@H](CC(C)C)NC=O [Orlistat, orlistat] | 0 | 27.8%^ | 67 |
| CCCCOc1ccccc1B(O)O [2-Butoxyphenyl boronic acid, 2-butoxyphenylboronic acid] | 0 | 28% | 0 |
| diethylumbelliferyl phosphate | 48 | 100% | >95 |
| O=C(Nc1cccc(-c2ccccc2)c1)OC1CCCCC1 [URB602, [1-1′-biphenyl]-3-t1-carbamicacid cyclohexyl ester] | 0 | 20% | 0 |
